Measurements from patent US20120276122A1, “METHODS FOR DIAGNOSIS AND TREATMENT OF CELLULAR PROLIFERATIVE DISORDERS” (Sanford-Burnham Medical Research Institute, priority 2010, published 2012).

How the values were obtained:
[1] = system: Jun2 promoter; experiment: Jun2 promoter-luciferase assay (ATF2 transcriptional activity); assay type: cell-based; settings: for Jun2-luciferase activity: SCC9
Experimental: (§1) C) is a photograph depicting coverslip-grown SCC9 cells that were co-treated with 40 ng/ml leptomycin B (LMB) and ETO overnight, and were subsequently fixed and immunofluorescently stained as indicated. D) is a gel depicting SCC9 cells transfected with the Jun2 promoter-luciferase construct and assayed for luciferase activity prior to (Control) or after ETO treatment. E) is a bar graph depicting luciferase activity of mitochondria (M) purified from ETO-treated SCC9 cells subject to proteolysis protection assay with titrated concentrations of trypsin: 0.2 (1), 0.1 (2), 0.05 (3), 0.025 (4), or 0.0125 (5) μg in the absence or presence of 1% Triton X-100 (TX) detergent. Scale bars represent 10 μm.
FIG. 3A) is an image depicting coverslip-grown SCC9 cells treated with 1 or 5 μM PKCε translocation inhibitor overnight, and immunofluorescently stained with indicated antibodies. B) is a photograph depicting coverslip-grown SCC9 cells treated with 10 nM siRNA targeting PKCε overnight were immunofluorescently stained with indicated antibodies. […] F) is a photograph depicting coverslip-grown SCC9 cells were transfected with HA-tagged wildtype ATF2 (WT), ATF2T52A or ATF2T52E, and subsequently immunofluorescently stained with indicated antibodies. G-H) is a series of bar graphs that show quantitation of (Left) SCC9 cells transfected with Jun2 promoter-luciferase construct and empty vector (EV) or caPKCε, assayed for luciferase activity after ETO treatment. (Right) SCC9 cells stably knocked down for ATF2 with a 3′-UTR-targeted shRNA, reconstituted with Jun2 promoter-luciferase construct and ATF2 (WT), ATF2T52A or ATF2T52E and subsequently assayed for luciferase activity. Scale bars represent 10 μm.

[2] = target: T1, PKCε (Homo sapiens, UniProt Q02156); experiment: In vitro kinase assay, PKCε phosphorylation of GST-tagged ATF2 50-100 peptide; assay type: biochemical
T1 sequence (Q02156 1-737): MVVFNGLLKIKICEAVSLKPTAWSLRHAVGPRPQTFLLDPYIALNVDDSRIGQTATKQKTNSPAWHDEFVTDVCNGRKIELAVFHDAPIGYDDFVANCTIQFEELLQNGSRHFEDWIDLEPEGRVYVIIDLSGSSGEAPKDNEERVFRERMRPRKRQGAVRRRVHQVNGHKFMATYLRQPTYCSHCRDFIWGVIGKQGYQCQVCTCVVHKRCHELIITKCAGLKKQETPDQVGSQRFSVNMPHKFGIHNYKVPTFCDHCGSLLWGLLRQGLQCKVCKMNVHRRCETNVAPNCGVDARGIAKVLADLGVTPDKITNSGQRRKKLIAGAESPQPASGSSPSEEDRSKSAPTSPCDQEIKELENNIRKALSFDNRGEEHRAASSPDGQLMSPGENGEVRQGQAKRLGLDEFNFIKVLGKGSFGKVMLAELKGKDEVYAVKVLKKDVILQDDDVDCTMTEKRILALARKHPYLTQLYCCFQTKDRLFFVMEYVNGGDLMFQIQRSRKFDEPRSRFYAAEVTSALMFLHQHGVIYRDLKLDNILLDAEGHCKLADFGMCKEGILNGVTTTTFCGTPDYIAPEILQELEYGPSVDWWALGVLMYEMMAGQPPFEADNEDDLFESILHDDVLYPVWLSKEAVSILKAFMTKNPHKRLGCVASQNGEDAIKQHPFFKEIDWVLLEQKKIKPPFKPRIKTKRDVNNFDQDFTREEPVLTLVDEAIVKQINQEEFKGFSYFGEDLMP
Experimental: To determine whether Thr52, the predicted PKCε site for phosphorylation of ATF2, regulates mitochondrial translocation of ATF2, phosphorylation of ATF2 by PKCε in vitro was assessed, as well as the localization of ATF2^T52A (a non-phosphorylatable alanine phosphomutant) and ATF2^T52E (a glutamic acid phosphomimic). […] This phosphorylation is inhibited upon addition of PKCε catalytic inhibitor, Gö6850 (FIG. 3E). […] Collectively, these findings establish that ATF2 mitochondrial localization is regulated by PKCε through phosphorylation at T52.

[3] = system: SCC9 cells; experiment: ATF2 mitochondrial localization, immunofluorescent staining of coverslip-grown cells; assay type: cell-based; settings: for cells with ATF2 accumulation at the mitochondria: SCC9, 5 μM etoposide overnight, 3 replicate coverslips
Experimental: as §1, with “FIG. 1A) is an image depicting control, 5 μM etoposide-treated (ETO, overnight treatment), UVC-treated (20 J/m^2), ionizing radiation-treated (IR, 5Gy), or 40 ng/ml leptomycin B (LMB) and ETO co-treated SCC9 cells grown on coverslips were immunofluorescently stained for HSP60,ATF2 or DNA. Immunostained control and ETO panels represent 89±4% and 64±11%, respectively, of the cells from 3 independent replicate coverslips per condition (n>100 cells counted per replicate). […] C)” for “C)”
Following indicated treatments, coverslip-grown cells were fixed in fixation buffer containing 4% formaldehyde and 2% sucrose in phosphate buffered saline (PBS) for 20 minutes at room temperature. After fixation, coverslips were rinsed twice in PBS and permeabilized in permeabilization buffer (0.4% Triton X-100 (TX-100)/0.4% bovine serum albumin (BSA) in PBS) for 20 minutes. Primary antibodies were applied at 1:250 dilution in staining buffer (0.1% TX-100/0.1% BSA in PBS) overnight at 4° C. in a humid chamber. Coverslips were subsequently subject to 5 standing washes in wash buffer (0.2% TX-100/0.2% BSA in PBS, 5 minutes per wash). Secondary antibodies (Alexa Fluor secondary 350, 488 or 568, Invitrogen) were applied at 1:250 dilution in staining buffer for 2-3 hours at room temperature in a humid chamber in the dark. Prior to mounting with Vectorshield containing DAPI (Vector Laboratories, CA), coverslips were washed twice additionally in wash buffer. Immunofluorescent analysis was conducted on an Olympus TH4-100 fluorescent microscope. At least 3 Z-planes per field were captured and analyzed using Slidebook V.4.1, and Z-projection images of average intensity were constructed using ImageJ V.1.43u.

[4] = system: PKCε pS729; experiment: Immunoblot of pS729 PKCε (active PKCε); assay type: cell-based; settings: SCC9, 5 μM overnight
[5] = system: SCC9 cells; experiment: Annexin-V / propidium iodide staining and FACS analysis (cell death); assay type: cell-based; settings: SCC9, 5 μM, overnight, representative FACS plot
Experimental: Cells were stained with Annexin-V and subject to FACS analysis. n=10,000 cells per replicate; 3 replicates per condition were performed. •: p=0.0001; #: p<0.0001.
For FACS analyses, n=10,000 cells per replicate over 3 independent replicates.

[6] = system: ATF2 pT52; experiment: Immunoblot densitometry of pT52/Total ATF2; assay type: cell-based; settings: SCC9, etoposide treatment
Text: B) Control or ATF2 -knocked down LU1205 cells were subject to immunoblot analysis with indicated antibodies. […] D) is an image showing control or ETO-treated coverslip-grown LU1205, 501Mel or UACC903 cells immunofluorescently stained with indicated antibodies.

[7] = system: SCC9 cells; experiment: HK1 co-localization with mitochondria (immunostaining and MitoTracker); assay type: cell-based; settings: SCC9, 5 μM etoposide overnight
Text: The arrowheads indicate HA-positive cells. Scale bars represent 10 μm.

[8] = system: ATF2; settings: cited from earlier work; for ATF2 nuclear exclusion: melanoma cells
[9] = system: melanoma; settings: syngeneic mice, human melanoma xenografts; cited from earlier work
[10] = system: melanoma cells; settings: melanoma cells versus melanocytes; cited from earlier work

CN(C)CCCn1cc(C2=C(c3c[nH]c4ccccc34)C(=O)NC2=O)c2ccccc21 [Gö6850]
Jun2-luciferase activity [1]: reduce Jun2-luciferase activity to similar extents as knockdown of ATF2 | PKCε phosphorylation of WT ATF2 peptide [2]: inhibited

CCC(=C/[C@H](C)C/C=C/C(C)=C/[C@@H](C)C(=O)[C@@H](C)[C@H](O)[C@@H](C)C/C(C)=C/C(=O)O)/C=C/[C@@H]1OC(=O)C=C[C@@H]1C [leptomycin B]
mitochondrial accumulation of ATF2 following etoposide treatment ([3]; SCC9, 40 ng/ml leptomycin B with ETO): prevented mitochondrial accumulation of ATF2 | ATF2 mitochondrial translocation following inhibition of PKCε ([3]; SCC9, leptomycin B pre-treatment 40 ng/ml 6 hours, then 5 μM PKCε-i): efficiently blocked

COc1cc([C@@H]2c3cc4c(cc3[C@@H](O[C@@H]3O[C@@H]5CO[C@@H](C)O[C@H]5[C@H](O)[C@H]3O)[C@H]3COC(=O)[C@H]23)OCO4)cc(OC)c1O [etoposide]
cells with ATF2 accumulation at the mitochondria [3]: ~64% | cells with ATF2 accumulation at the mitochondria ([3]; listed as ETO): 64±11% | Jun2-luciferase activity [1]: reduce Jun2-luciferase activity to similar extents as knockdown of ATF2 | reduction of luciferase activity driven by the Jun2 promoter ([1]; SCC9, after ETO treatment): ~50% | PKCε phosphorylation on Ser729 [4]: decreased | Annexin V-negative (AV−) percentage [5]: 89.5% | Annexin V-positive (AV+) percentage [5]: 11.5% | levels of pT52 [6]: lower | HK1 co-localization with mitochondria [7]: enhanced

ATF2 50-100 peptide: 50 amino acid long peptide derived from ATF2 (amino acids 50-100), contains T52 (EMTLKFGPARNDSVIVADQTPTPTRFLKNCEEVGLFNELASPFENEFKKAS; UniProt P15336 50-100, looked up, fragment)
ATF2 transcriptional activity [8]: inhibit ATF2 transcriptional activity | ATF2 nuclear exclusion [8]: caused nuclear exclusion of ATF2 | melanoma growth [9]: inhibit melanoma growth in syngeneic mice | sensitization to apoptosis [10]: sensitized melanoma cells (but not melanocytes) to apoptosis

ATF2 50-60 peptide: 10 amino acid long peptide derived from ATF2 (amino acids 50-60), contains T52 (EMTLKFGPARN; UniProt P15336 50-60, looked up, fragment)
ATF2 transcriptional activity [8]: inhibit ATF2 transcriptional activity | ATF2 nuclear exclusion [8]: caused nuclear exclusion of ATF2 | melanoma growth [9]: inhibit melanoma growth in syngeneic mice | sensitization to apoptosis [10]: sensitized melanoma cells (but not melanocytes) to apoptosis
